Here are results for 3 molecules from BindingDB's records for doi:10.1016/j.bmcl.2013.06.023 (Northwest Agriculture & Forestry University, 2013).

Assay [1] concerns the target T1, G protein-activated inward rectifier potassium channel 4 (Homo sapiens, UniProt P48544).
T1 sequence (P48544 whole entry): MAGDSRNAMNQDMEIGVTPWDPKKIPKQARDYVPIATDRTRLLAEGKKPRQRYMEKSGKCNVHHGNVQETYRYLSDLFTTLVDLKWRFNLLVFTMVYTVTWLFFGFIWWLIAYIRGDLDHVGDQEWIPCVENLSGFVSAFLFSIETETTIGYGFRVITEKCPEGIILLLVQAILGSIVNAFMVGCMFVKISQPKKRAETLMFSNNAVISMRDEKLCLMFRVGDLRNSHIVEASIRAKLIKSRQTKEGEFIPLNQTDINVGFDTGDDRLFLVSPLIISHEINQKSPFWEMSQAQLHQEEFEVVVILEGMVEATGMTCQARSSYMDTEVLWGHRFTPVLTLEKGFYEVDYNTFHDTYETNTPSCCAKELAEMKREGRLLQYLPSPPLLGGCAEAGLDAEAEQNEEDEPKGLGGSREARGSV
Put plainly: Inhibition of GIRK1/4 (unknown origin).

The target in assay [2] is T2, G protein-activated inward rectifier potassium channel 1 (Homo sapiens, UniProt P48549).
T2 sequence (P48549 whole entry): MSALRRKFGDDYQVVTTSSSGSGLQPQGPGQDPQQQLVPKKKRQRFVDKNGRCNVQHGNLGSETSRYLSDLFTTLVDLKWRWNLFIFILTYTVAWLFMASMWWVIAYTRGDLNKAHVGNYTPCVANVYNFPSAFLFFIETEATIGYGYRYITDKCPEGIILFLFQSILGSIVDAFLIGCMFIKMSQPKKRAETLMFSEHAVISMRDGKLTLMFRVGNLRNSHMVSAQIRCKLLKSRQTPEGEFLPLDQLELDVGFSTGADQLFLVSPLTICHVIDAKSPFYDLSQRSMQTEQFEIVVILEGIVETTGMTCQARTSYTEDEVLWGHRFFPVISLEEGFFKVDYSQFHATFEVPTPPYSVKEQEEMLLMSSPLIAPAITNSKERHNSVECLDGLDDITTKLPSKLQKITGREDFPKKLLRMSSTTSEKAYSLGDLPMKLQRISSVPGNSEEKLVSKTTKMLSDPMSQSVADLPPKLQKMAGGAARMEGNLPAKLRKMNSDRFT
Put plainly: Inhibition of GIRK1/2 (unknown origin).

As to `O=C(Nc1ccc(F)c(F)c1)Nc1cc(C(F)(F)F)nn1-c1ccccc1`, the half-maximal inhibitory concentration (IC50) in assay [1] and in assay [2] was 30 µM in each case.

Turning to `O=C(Nc1ccc(F)c(F)c1)Nc1cc(C2CCC2)nn1-c1ccccc1`, the IC50 in assay [1] and in assay [2] was 30 µM in each case.

`O=C(Nc1ccc(F)c(F)c1)Nc1cc(-c2ccccc2)nn1-c1ccccc1`: the IC50 in assay [1] and in assay [2] was 30 µM throughout.

What is called IC50 is the midpoint of a concentration-inhibition curve.
